Experimental data taken from patent US9950993B2 (Rutgers, The State University of New Jersey, priority 2015, dated 2018).

Test system: Escherichia coli W4573
Assay: Test A: MIC-based assay for efflux pump inhibition (enhancement of minocycline MIC)
Assay type: cell-based
Details: ratio of minocycline MIC in absence to MIC in presence of test compound, test compound at 12.5 ug/ml (27-48 μM)
Protocol: Test A. Minimum Inhibitory Concentration (MIC)-Based Assay for Efflux Pump Inhibition:
MIC-based assays were used to evaluate the impact of potential efflux pump inhibiting (EPI) compounds on the MIC of minocycline, an antibiotic known to be a substrate for Gram-negative bacterial efflux pumps. The assays were conducted in accordance with Clinical and Laboratory Standards Institute (CLSI) guidelines for broth microdilution, with the modification that assays were conducted in the presence and absence of the test EPI compounds. When present, the EPI compounds were added to cation-adjusted Mueller-Hinton (CAMH) broth (Becton, Dickinson and Co., Franklin Lakes, N.J.) at a final concentration of 12.5 µg/mL.
Log-phase Gram-negative bacteria were added to 96-well microtiter plates (at 5×10^5 colony forming units (CFU) per mL) containing two-fold serial dilutions of minocycline in CAMH broth either in the absence or presence of the test EPI compounds. In all assays, each serial dilution of minocycline was present in duplicate. The final volume in each well was 0.1 mL, and the microtiter plates were incubated aerobically for 24 hours at 37° C. Bacterial growth was then monitored by measuring the optical density (OD) at 600 nm using a VersaMax® plate reader (Molecular Devices, Inc., Sunnyvale, Calif.), with the MIC being defined as the lowest compound concentration at which growth was ≥90% inhibited compared to antibiotic-free control. The following Gram-negative bacterial strains were included in these assays:
Escherichia coli W4573, ATCC 25922, and ATCC BAA-201 (an extended spectrum […] (ESBL)-producing strain that expresses the TEM-3 β-lactamase).
The efflux pump mutant E. coli strain N43 (acrA1) was used as a positive control.
The enhancement is the ratio of the minocycline MIC in the absence of test compound to the minocycline MIC in the presence of test compound.

SMILES | Enhancement
NCCC[C@H](N)CNC(=O)C(CCc1ccccc1)CCc1ccccc1 [Example 1, (S)—N-(2,5-diaminopentyl)-2-phenethyl-4-phenylbutanamide] | 8
NCCC[C@@H](N)CNC(=O)C(CCc1ccccc1)CCc1ccccc1 [Example 2, (R)—N-(2,5-diaminopentyl)-2-phenethyl-4-phenylbutanamide] | 64
NCC[C@H](N)CNC(=O)C(CCc1ccccc1)CCc1ccccc1 [Example 3, (S)—N-(2,4-diaminobutyl)-2-phenethyl-4-phenylbutanamide] | 8
NC[C@H](N)CNC(=O)C(CCc1ccccc1)CCc1ccccc1 [Example 4, (S)—N-(2,3-diaminopropyl)-2-phenethyl-4-phenylbutanamide] | 1
NC[C@@H](N)CCCNC(=O)C(CCc1ccccc1)CCc1ccccc1 [Example 5, (S)—N-(4,5-diaminopentyl)-2-phenethyl-4-phenylbutanamide] | 2
NCCC[C@H](N)CNC(=O)C(CCc1ccccc1)Cc1ccccc1 (stereo partly drawn) [Example 6, 2-benzyl-N—((S)-2,5-diaminopentyl)-4-phenylbutanamide] | 4
NCCC[C@H](N)CNC(=O)C(Cc1ccccc1)Cc1ccccc1 [Example 7, (S)-2-benzyl-N-(2,5-diaminopentyl)-3-phenylpropanamide] | 8
NCCC[C@H](N)CNC(=O)C(c1ccccc1)c1ccccc1 [Example 8, (S)—N-(2,5-diaminopentyl)-2,2-diphenylacetamide] | 4
NCCC[C@H](N)CNC(=O)CC(c1ccccc1)c1ccccc1 [Example 9, (S)—N-(2,5-diaminopentyl)-3,3-diphenylpropanamide] | 8
NCCC[C@H](N)CNC(=O)CCCc1ccccc1 [Example 10, (S)—N-(2,5-diaminopentyl)-4-phenylbutanamide] | 4
COc1ccc(CCC(CCc2ccccc2)C(=O)NC[C@@H](N)CCCN)cc1 (stereo partly shown) [Example 11] | 4
NCCC[C@H](N)CNC(=O)CC(Cc1ccccc1)Cc1ccccc1 [Example 12, (S)-3-Benzyl-N-(2,5-diaminopentyl)-4-phenylbutanamide] | 16
NCCC[C@H](N)CNC(=O)CC(CCc1ccccc1)CCc1ccccc1 [Example 13, (S)—N-(2,5-diaminopentyl)-3-phenethyl-5-phenylpentanamide] | 512
